One assay concerns the target Caspase-8 (Homo sapiens, UniProt Q14790). The assay is described as follows: caspase-8 inhibition counter-screen, dose response, selectivity assay for caspase-6 inhibitor project, biochemical, Z-IETD-R110 fluorescence, cherry-picked samples (AID 743294).
In the next assay the target is T1, Hexokinase-1 (Homo sapiens, UniProt P19367).
T1 sequence (P19367 whole entry): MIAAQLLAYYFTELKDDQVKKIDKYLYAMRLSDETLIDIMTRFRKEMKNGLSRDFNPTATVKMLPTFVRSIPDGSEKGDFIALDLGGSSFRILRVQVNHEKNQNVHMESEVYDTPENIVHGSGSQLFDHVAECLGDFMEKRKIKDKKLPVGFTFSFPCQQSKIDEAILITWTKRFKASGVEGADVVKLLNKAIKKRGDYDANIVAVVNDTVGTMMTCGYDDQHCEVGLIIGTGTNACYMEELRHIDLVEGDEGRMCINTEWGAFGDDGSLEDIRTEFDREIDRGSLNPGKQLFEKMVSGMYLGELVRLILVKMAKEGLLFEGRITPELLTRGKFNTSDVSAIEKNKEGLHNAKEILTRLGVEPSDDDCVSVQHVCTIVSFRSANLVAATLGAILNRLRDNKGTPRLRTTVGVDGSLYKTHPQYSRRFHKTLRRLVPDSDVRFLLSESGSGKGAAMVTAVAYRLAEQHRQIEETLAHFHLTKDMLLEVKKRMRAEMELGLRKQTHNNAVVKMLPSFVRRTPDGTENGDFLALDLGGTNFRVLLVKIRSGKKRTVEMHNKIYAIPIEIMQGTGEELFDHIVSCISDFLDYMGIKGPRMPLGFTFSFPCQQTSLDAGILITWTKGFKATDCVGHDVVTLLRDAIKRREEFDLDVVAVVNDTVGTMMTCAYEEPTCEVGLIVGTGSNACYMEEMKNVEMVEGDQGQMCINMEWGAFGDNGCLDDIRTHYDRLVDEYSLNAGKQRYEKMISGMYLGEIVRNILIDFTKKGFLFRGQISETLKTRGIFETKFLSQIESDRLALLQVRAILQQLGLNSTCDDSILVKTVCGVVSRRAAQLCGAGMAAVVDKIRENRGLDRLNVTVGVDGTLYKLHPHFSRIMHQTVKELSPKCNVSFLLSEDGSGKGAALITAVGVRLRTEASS
The assay is described as follows: hexokinase 1 activators, dose response, selectivity assay for HKDC1 activator project, biochemical (AID 504762). The class given is functional.

For assay [1], the target named is Heat shock protein HSP 90-alpha (Homo sapiens, UniProt P07900). The class given is functional, organism-based.
Assay [2] is described as follows: inhibitors of firefly luciferase expression or activity, dose response, H4 neuroglioma cells, luminescence (AID 1990). The class given is functional, cell-based.
The target in assay [3] is Transitional endoplasmic reticulum ATPase (Homo sapiens, UniProt P55072, C522A). The assay is described as follows: C522A mutant p97 ATPase inhibitors, dose response, counter-screen for p97 inhibitor project, biochemical, luminescence (AID 1544).
Chain of Transitional endoplasmic reticulum ATPase (Homo sapiens, UniProt P55072, C522A) (P55072 2-806 C522A limits assumed): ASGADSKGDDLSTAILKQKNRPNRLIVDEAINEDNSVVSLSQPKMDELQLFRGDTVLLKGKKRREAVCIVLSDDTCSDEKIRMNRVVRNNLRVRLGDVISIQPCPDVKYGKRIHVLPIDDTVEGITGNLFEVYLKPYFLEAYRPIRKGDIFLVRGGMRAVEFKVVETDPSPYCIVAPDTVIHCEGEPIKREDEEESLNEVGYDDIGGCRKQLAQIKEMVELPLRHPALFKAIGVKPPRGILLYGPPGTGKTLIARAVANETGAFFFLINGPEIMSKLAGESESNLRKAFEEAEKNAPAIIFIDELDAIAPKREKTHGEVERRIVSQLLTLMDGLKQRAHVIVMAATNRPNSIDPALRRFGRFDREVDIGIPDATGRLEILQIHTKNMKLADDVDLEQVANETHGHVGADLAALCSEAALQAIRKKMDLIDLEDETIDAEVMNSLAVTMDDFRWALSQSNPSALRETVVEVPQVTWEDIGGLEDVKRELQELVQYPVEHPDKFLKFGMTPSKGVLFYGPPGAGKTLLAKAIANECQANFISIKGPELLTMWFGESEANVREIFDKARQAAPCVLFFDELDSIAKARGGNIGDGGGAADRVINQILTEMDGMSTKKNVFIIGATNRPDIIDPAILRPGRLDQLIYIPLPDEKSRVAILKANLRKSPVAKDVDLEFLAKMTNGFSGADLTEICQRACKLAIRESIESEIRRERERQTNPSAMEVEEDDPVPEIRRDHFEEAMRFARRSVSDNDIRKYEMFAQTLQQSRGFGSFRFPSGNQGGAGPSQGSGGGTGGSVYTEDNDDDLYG
Assay [4] addresses G-protein coupled receptor 55 (Homo sapiens, UniProt Q9Y2T6). The assay is described as follows: GPR55 antagonists blocking LPI-driven arrestin recruitment, primary screen, imaging, U2OS, beta-arrestin-GFP, LPI agonist (AID 2013).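 Also: antagonist potency measured as reduced agonist-driven arrestin aggregation.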 It is filed as functional.
The target of assay [5] is Transitional endoplasmic reticulum ATPase (Homo sapiens, UniProt P55072). Nature of the assay: p97 ATPase inhibitors, dose response, biochemical (AID 1534).
Chain of Transitional endoplasmic reticulum ATPase (Homo sapiens, UniProt P55072) (P55072 whole entry): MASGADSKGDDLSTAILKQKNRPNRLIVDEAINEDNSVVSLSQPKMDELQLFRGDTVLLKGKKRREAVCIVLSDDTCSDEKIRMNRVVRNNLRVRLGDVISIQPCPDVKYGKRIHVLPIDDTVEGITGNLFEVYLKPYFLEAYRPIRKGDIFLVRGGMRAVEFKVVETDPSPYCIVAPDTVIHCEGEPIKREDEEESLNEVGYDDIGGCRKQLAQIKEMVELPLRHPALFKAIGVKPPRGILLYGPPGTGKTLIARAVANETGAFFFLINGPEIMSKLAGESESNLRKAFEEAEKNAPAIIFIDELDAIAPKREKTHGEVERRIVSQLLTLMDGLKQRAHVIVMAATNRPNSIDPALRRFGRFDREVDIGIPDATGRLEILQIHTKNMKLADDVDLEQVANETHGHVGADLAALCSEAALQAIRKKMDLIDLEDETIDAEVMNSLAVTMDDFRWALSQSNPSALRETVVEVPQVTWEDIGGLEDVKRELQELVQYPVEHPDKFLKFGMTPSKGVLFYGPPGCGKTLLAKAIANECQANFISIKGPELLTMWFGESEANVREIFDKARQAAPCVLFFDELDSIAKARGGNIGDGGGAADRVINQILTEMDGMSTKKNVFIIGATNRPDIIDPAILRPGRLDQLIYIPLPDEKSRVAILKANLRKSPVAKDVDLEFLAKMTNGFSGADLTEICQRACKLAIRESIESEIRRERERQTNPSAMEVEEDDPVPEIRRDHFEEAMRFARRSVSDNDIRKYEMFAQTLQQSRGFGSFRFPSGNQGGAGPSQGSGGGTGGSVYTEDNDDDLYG
The nature of assay [6]: Intein inhibitors as potential Tuberculosis drugs, a cytotoxicity screen. [Related pubchem assays (depositor defined):AID2221, AID2223, AID434968, AID435010, AID449749, AID449750, AID489010]. The class given is functional.
Assay [7] concerns the target T2, Apoptotic protease-activating factor 1 (Homo sapiens, UniProt O14727).
T2 sequence (O14727 whole entry): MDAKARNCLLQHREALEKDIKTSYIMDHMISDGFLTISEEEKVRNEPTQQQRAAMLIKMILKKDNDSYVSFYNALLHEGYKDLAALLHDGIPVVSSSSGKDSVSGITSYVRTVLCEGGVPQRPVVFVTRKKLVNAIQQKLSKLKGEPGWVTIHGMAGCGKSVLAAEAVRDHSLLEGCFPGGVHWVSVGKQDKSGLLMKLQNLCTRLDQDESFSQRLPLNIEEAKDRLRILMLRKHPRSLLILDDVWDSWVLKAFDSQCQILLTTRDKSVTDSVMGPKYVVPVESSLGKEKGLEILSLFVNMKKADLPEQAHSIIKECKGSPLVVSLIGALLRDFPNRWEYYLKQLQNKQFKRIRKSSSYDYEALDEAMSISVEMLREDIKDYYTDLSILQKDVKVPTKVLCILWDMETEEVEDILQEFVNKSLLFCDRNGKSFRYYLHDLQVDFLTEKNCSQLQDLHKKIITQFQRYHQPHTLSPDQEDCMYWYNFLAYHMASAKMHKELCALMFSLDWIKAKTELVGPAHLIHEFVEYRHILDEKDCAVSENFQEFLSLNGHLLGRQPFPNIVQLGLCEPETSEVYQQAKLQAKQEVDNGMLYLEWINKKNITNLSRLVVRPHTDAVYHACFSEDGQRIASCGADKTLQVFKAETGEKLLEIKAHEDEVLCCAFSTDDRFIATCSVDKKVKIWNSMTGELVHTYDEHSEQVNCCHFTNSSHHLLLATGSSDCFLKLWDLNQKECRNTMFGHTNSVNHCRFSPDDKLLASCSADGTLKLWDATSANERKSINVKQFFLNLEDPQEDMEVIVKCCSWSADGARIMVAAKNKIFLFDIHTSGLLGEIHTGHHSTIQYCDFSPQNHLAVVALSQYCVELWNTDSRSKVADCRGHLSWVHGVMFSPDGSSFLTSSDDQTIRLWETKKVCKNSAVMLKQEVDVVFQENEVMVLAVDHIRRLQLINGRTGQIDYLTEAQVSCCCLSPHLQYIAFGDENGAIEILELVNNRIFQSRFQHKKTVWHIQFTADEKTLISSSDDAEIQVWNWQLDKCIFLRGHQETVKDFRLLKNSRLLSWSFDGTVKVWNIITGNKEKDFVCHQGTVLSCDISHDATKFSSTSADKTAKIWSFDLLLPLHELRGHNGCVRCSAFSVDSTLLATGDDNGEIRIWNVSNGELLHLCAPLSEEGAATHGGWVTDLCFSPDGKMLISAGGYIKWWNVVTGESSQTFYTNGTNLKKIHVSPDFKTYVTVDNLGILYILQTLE
The class given is functional.

Assay [8] is described as follows: NIH-3T3 fibroblast cytotoxicity, dose response, cytotoxicity control, cell-based, fluorescence, Alamar Blue, secondary assay (AID 2327).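 Also: NIH-3T3 mouse fibroblasts cultured with fluconazole at 8 µg/mL.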 The class given is functional.
A short description of a further assay: cells. It is filed as functional, cell-based.
A further assay deals with HEK293. Nature of the assay: SAR Analysis of small molecule inhibitors of T-cell specific antigen receptor-induced NF-kB activation in a HEK-293T cell line using a luminescence assay - Set 2. [Related pubchem assays (depositor defined):AID435003, AID435012, AID489026]. It is filed as functional, cell-based. The following applies: Homo sapiens.

The source made the active and inactive calls.
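For CC50 in this document: cells exposed to compound for 72 hours before luminescence readout.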

Chain of G-protein coupled receptor 55 (Q9Y2T6 whole entry): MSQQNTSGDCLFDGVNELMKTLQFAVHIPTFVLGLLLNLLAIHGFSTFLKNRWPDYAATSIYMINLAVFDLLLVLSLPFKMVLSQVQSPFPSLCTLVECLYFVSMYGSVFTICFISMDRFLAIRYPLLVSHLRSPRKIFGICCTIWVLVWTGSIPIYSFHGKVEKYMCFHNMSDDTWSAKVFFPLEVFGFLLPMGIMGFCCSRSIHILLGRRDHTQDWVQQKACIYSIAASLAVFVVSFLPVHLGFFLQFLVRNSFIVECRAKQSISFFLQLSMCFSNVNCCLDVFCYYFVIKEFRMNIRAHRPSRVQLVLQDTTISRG
Chain of Caspase-8 (Q14790 217-374 limits assumed): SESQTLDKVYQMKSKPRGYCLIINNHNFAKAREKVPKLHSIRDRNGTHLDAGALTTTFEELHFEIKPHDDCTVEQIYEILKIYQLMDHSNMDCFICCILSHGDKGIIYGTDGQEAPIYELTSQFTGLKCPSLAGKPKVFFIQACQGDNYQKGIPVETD
Chain of Caspase-8 (Q14790 385-479 limits assumed): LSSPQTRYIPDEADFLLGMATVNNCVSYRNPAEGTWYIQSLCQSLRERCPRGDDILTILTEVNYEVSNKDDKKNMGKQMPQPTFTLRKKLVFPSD

As for `NS(=O)(=O)c1ccc(NC(=O)COC(=O)c2ccc([N+](=O)[O-])s2)cc1`, the AC50 on Caspase-8 is 20.3 µM (active).
For `SC1=Nc2ccccc2C1`, the EC50 on Hexokinase-1 was 19.3 µM (active). Besides, in assay [1], the AC50 was 3.88 µM (active).
As to `Cn1nc(-c2ccc(Cl)cc2)nc2c(=O)n(C)c(=O)nc1-2`, in assay [2], the EC50 was 5.59 µM (inconclusive). The IC50 in assay [3] is > 50 µM (not active); in assay [4], 7.35 µM (active); in [5], > 50 µM (not active). The CC50 in [6] is > 40 µM (active).
As for `CCCCNc1cc(NC(C)=O)cc2cc(OC)c(OC)cc12`, the IC50 in [7] is 3.62 µM (active).
In the case of `COc1ccc(C(NC(=O)C(C)C)c2ccc3cccnc3c2O)cc1` (configuration not stated), the EC50 in assay [8] was 40.1 µM (active); in the assay “cells” it was > 350 µM (not active). The IC50 in the assay on HEK293 was 3.15 µM (active).

Source of the values: ChEMBL document CHEMBL1201862, “PubChem BioAssay data set” (2004).
